Results: patent EP0158299A2, “Substituted phenylethyl derivatives, process for their preparation and pharmaceutical agents” (Merz & Co. GmbH & Co., priority 1984, dated 1985)
≈ marks a conversion by molar mass, not a printed value. Structures can show the parent of a compound that is named as a salt.

How the values were obtained:
Type in all cases: cell-based
[1] = test system: M.c.; assay: serial dilution test, fungistatic activity (MIC); conditions: Pilzspezies M.c.; read-out: Minimale Hemmkonzentrationen
From the text: (§1) Die erfindungemäßen Verbindungen wurden im Reihenverdünnungstest auf ihre fungistatische Wirksamkeit gegen verschiedene Pilzspezies und gegen verschiedene Bakterienstämme geprüft. Die so ermittelten minimalen Hemmkonzentrationen (MHK) sind in den folgenden Tabellen wiedergegeben: […]

[2] = test system: T.r.; assay: serial dilution test, fungistatic activity (MIC); conditions: Pilzspezies T.r.; read-out: Minimale Hemmkonzentrationen
From the text: as §1

[3] = test system: A.f.; assay: serial dilution test, fungistatic activity (MIC); conditions: Pilzspezies A.f.; read-out: Minimale Hemmkonzentrationen
From the text: as §1

[4] = test system: C.t.; assay: serial dilution test, fungistatic activity (MIC); conditions: Pilzspezies C.t.; read-out: Minimale Hemmkonzentrationen
From the text: as §1

[5] = test system: A.c.; assay: serial dilution test, fungistatic activity (MIC); conditions: Pilzspezies A.c.; read-out: Minimale Hemmkonzentrationen
From the text: as §1

[6] = test system: C.a.; assay: serial dilution test, fungistatic activity (MIC); conditions: Pilzspezies C.a.; read-out: Minimale Hemmkonzentrationen
From the text: as §1

[7] = test system: T.m.; assay: serial dilution test, fungistatic activity (MIC); conditions: Pilzspezies T.m.; read-out: Minimale Hemmkonzentrationen
From the text: as §1

[8] = test system: Streptococcus pyogenes; assay: serial dilution test against bacterial strains (MIC); conditions: Bakterienstämme S.p. = Streptococcus pyogenes; read-out: Minimale Hemmkonzentrationen
From the text: as §1

[9] = test system: Staphylococcus aureus; assay: as above; conditions: Bakterienstämme S.a. = Staphylococcus aureus; read-out: Minimale Hemmkonzentrationen
From the text: as §1

[10] = test system: Streptococcus faecalis; assay: as above; conditions: Enterococcus faecalis; Bakterienstämme S.f. = Streptococcus faecalis; read-out: Minimale Hemmkonzentrationen
From the text: as §1

[11] = test system: S.s.; assay: serial dilution test, fungistatic activity (MIC); conditions: Pilzspezies S.s.; read-out: Minimale Hemmkonzentrationen
From the text: as §1

SMILES | MIC [1] | MIC [2] | MIC [3] | MIC [4] | MIC [5] | MIC [6] | MIC [7] | MIC [8] | MIC [9] | MIC [10] | MIC [11]
FC(F)(Oc1ccc(CON=C(Cn2ccnc2)c2ccc(Cl)cc2Cl)cc1)C(Cl)Cl [Verbind. I, 1-(2,4-Dichlorphenyl)-2-(1H-imidazol-1-yl)-0-(4-(2,2-dichlor-1,1-difluorethoxy)benzyl)ethanonoxim-nitrat] | 3.1 µg/mL (≈ 6.09 µM) | 6.25 µg/mL (≈ 12.3 µM) | 12.5 µg/mL (≈ 24.5 µM) | 0.8 µg/mL (≈ 1.57 µM) | 1.6 µg/mL (≈ 3.14 µM) | 0.1 µg/mL (≈ 0.196 µM) | 6.25 µg/mL (≈ 12.3 µM) | 0.8 µg/mL (≈ 1.57 µM) | 6.25 µg/mL (≈ 12.3 µM) | 12.5 µg/mL (≈ 24.5 µM) | 
Clc1ccc(C(Cn2ccnc2)=NOCc2ccc(C3CC3(Cl)Cl)cc2)c(Cl)c1 (stereo not shown) [Verbind. II, 1-(2,4-Dichlorphenyl)-2-(1H-imidazol-1-yl)-0-(4-(2,2-di-chlorcyclopropyl)benzyl)ethanonoxim-nitrat] |  | 6.2 µg/mL (≈ 13.2 µM) | 25 µg/mL (≈ 53.3 µM) | 25 µg/mL (≈ 53.3 µM) |  | 3.1 µg/mL (≈ 6.61 µM) | 12.5 µg/mL (≈ 26.6 µM) |  |  |  | 1.6 µg/mL (≈ 3.41 µM)
Clc1ccc(C(Cn2ccnc2)OCc2ccc(C3CC3(Cl)Cl)cc2)c(Cl)c1 (stereo not shown) [Verbind. III, 1-(2,4-Dichlorphenyl)-1-(4-(2,2-dichlorcyclopropyl)benzyloxy)-2-(1H-imidazol-1-yl)ethan-nitrat] |  | 0.8 µg/mL (≈ 1.75 µM) | 1.6 µg/mL (≈ 3.51 µM) | 3.1 µg/mL (≈ 6.8 µM) |  | 0.05 µg/mL (≈ 0.11 µM) | 0.8 µg/mL (≈ 1.75 µM) |  |  |  | 0.2 µg/mL (≈ 0.438 µM)
FC(F)(Oc1ccc(COC(Cn2ccnc2)c2ccc(Cl)cc2Cl)cc1)C(Cl)Cl (stereo not shown) [Verbind. IV, 1-(2,4-Dichlorphenyl)-1-(4-(2,2-dichlor-1,1-difluor-ethoxy)benzyloxy)-2-(1H-imidazol-1-yl)ethan-hydrochlorid] |  | 0.1 µg/mL | 3.1 µg/mL | 0.1 µg/mL |  | 0.1 µg/mL | 0.1 µg/mL | < 0.2 µg/mL | 3.1 µg/mL | 1.6 µg/mL | 
FC(Cl)C(F)(F)Oc1ccc(COC(Cn2ccnc2)c2ccc(Cl)cc2Cl)cc1 (stereo not shown) [Verbind. VI, 1-(2,4-Dichlorphenyl)-1-(4-(2-chlor-1,1,2-trifluorethoxy)benzyloxy)-2-(1H-imidazol-1-yl)ethan-nitrat] | 0.2 µg/mL (≈ 0.417 µM) | 0.8 µg/mL (≈ 1.67 µM) | 1.6 µg/mL (≈ 3.34 µM) | 1.6 µg/mL (≈ 3.34 µM) |  | 0.05 µg/mL (≈ 0.104 µM) | 0.8 µg/mL (≈ 1.67 µM) |  |  |  | 0.1 µg/mL (≈ 0.208 µM)
